Assay results reported in ChEMBL document CHEMBL1148928, “Hyrtiosenolides A and B, two new sesquiterpene gamma-methoxybutenolides and a new sterol from a Red Sea sponge Hyrtios species” (2004).
Calls of active or inactive are those of the source. The rule behind the calls is not given here.

Tests used:
[1] = tested on: Escherichia coli; test: Antibacterial activity against Escherichia coli at 100 ug/disk; assay type: functional
[2] = tested on: Escherichia coli; test: Antibacterial activity against Escherichia coli at 50 ug/disk; assay type: functional

| SMILES | Activity [1] | Activity [2] | zone of inhibition at 100 µg/disc ([1]; read-out: IZ) | zone of inhibition at 50 µg/disc ([2]; read-out: IZ) |
| --- | --- | --- | --- | --- |
| C=C1[C@@]2(C)CCC3=CC(=O)O[C@]3(OC)[C@H](C2)C[C@@]1(C)O | inactive | inactive |  |  |
| C=C1C[C@H]2C[C@](C)(CCC3=CC(=O)O[C@@]32OC)[C@]1(C)O [HYRTIOSENOLIDE A] |  |  | 7 mm | 7 mm |
